Assay results: patent publication US9345241B2, “Composition having biocide activity for aqueous preparations” (Omya International AG, priority 2008, dated 2016)

Key:
[1] = tested on: Pseudomonas putida; experiment: Biocidal activity of EDDM biocide in calcium carbonate slurries, plate count; format: cell-based
Procedure: (§1) All quoted bacterial counts (values are in cfu/ml) in the Tables herebelow are determined after 5 days following plate-out and in accordance with counting method described in “Bestimmung von aeroben mesophilen Keimen”, Schweizerisches Lebensmittelbuch, chapter 56, section 7.01, edition of 1985, revised version of 1988.
(§2) (Ethylenedioxy)dimethanol (EDDM), an aldehyde-releasing biocide, was introduced into 50 g samples of each of calcium carbonate slurry 1 and calcium carbonate slurry 2 in an amount corresponding to 1500 ppm of aldehyde-releasing EDDM biocide based on the weight of the weight of water in the slurry. In parallel, control samples of calcium carbonate slurry 1 and calcium carbonate slurry 2 were prepared in absence of EDDM.
(§3) Half of the samples of calcium carbonate slurry 1 and calcium carbonate slurry 2 were then inoculated with 1 mL of Methylobacterium extorquens, while the remaining samples where inoculated with 1 mL of Pseudomonas putida. Each of the samples was incubated at 30° C. for 72 hours. Thereafter, a 1:10 dilution in phosphate buffered saline (PBS) was plated on plate count agar (PCA). These plates were incubated at 30° C. and analysed after 5 days.

[2] = tested on: Methylobacterium extorquens; experiment: as above; format: cell-based
Procedure: as §1, §2, §3

[3] = EDDM 1500 ppm in combination with lithium
[4] = EDDM alone at 1500 ppm, no lithium

For `OCOCCOCO` [EDDM, (Ethylenedioxy)dimethanol], the “bacterial count of the suspension” value [1, 3] was “below 10^4 cfu/ml”, the “resistance of the strain to the biocide implemented alone” value [1, 4] was “show resistance” and the “bacterial count of the suspension” value [2, 3] was “below 10^4 cfu/ml”. The “resistance of the strain to the biocide implemented alone” value [2, 4] was “show resistance”.
